Some test systems named below: T-47D breast; NCI-H460 lung; SNB-75 CNS; HCT-15 colon; TK-10 renal; IGROV1 ovarian; MDA-N; SF-295 CNS; M14 melanoma; DU-145 prostate; OVCAR-3 ovarian.
What all share (assay): NCI tumour cell line growth inhibition, 48 h

These results are taken from PubChem BioAssay (NCI).

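The compound was tested at five concentrations on cells cultured in 96-well plates, with a 48-hour exposure period. TGI marks complete inhibition of growth.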

`O=C1CCc2cc3c(cc21)C(C(=O)O)CC3` (configuration not stated): the TGI in the assay on T-47D breast, in the assay on NCI-H460 lung, in the assay with SNB-75 CNS, with HCT-15 colon, in the assay with TK-10 renal and with IGROV1 ovarian was above 100 µM in each case. Besides, the TGI in the assay on MDA-N, with SF-295 CNS, with M14 melanoma and in the assay on DU-145 prostate was above 100 µM throughout.

On to `O=C1/C(=C/c2cccs2)N=C(c2ccccc2)N1c1nc2ccccc2s1`, for which the TGI in the assay on T-47D breast, in the assay with NCI-H460 lung, with HCT-15 colon, in the assay on TK-10 renal, in the assay on IGROV1 ovarian and in the assay with MDA-N was above 100 µM throughout. The TGI in the assay with SF-295 CNS, with OVCAR-3 ovarian, in the assay with M14 melanoma and with DU-145 prostate was above 100 µM in each case.

Turning to `c1cc2c3c(c1)[C@@H]1O[C@@H]1c1cccc(c1-3)[C@@H]1O[C@H]21`, the TGI in the assay with T-47D breast was 62.8 µM; in the assay on SNB-75 CNS it was 70.1 µM; with HCT-15 colon it was 47.2 µM; in the assay on TK-10 renal, above 100 µM; in the assay with MDA-N, 41.9 µM; in the assay on SF-295 CNS, above 100 µM. The TGI came out at 34.1 µM in the assay on M14 melanoma and 38.7 µM in the assay with DU-145 prostate.

For `COc1ccc(OC)c(-c2cn3c(n2)sc2ccccc23)c1`, the TGI in the assay on T-47D breast, with NCI-H460 lung, with SNB-75 CNS, with HCT-15 colon, with TK-10 renal and in the assay with IGROV1 ovarian was above 100 µM each time. Also, the TGI in the assay on MDA-N, in the assay on SF-295 CNS, in the assay on OVCAR-3 ovarian and with DU-145 prostate was above 100 µM each time.

In the case of `CCOC(=O)COC1=Nc2cc(OC)c(OC)c3nc(Cl)cc(c23)C1=O`, the TGI in the assay with T-47D breast amounted to 24 µM; in the assay with NCI-H460 lung it was 39.3 µM; with SNB-75 CNS it was 5.87 µM; with HCT-15 colon, 6.16 µM; with TK-10 renal it was 3.45 µM; with IGROV1 ovarian it was 5.97 µM. For the same compound, the TGI in the assay on MDA-N is 2.63 µM; with SF-295 CNS, 24 µM; in the assay with M14 melanoma, 3.08 µM; with DU-145 prostate, 3.32 µM.

For the compound `COc1c(-c2ccc(F)cc2)oc2cc(O)cc(O)c2c1=O`, the TGI with T-47D breast was 56.9 µM; with NCI-H460 lung, 59.9 µM; with SNB-75 CNS, 64 µM; with HCT-15 colon it was 38 µM; with IGROV1 ovarian it was above 100 µM; in the assay on MDA-N, 62 µM. The TGI is 83.9 µM with SF-295 CNS, above 100 µM with OVCAR-3 ovarian, above 100 µM with M14 melanoma and 96.5 µM in the assay with DU-145 prostate.

As to `O=C1NC(=S)N/C1=C\c1ccc(Sc2ccccc2C(=O)O)s1`, the TGI with T-47D breast, in the assay with NCI-H460 lung, in the assay with SNB-75 CNS, in the assay with HCT-15 colon, in the assay on TK-10 renal and with IGROV1 ovarian was above 100 µM in each case. Also, the TGI in the assay with MDA-N, in the assay with SF-295 CNS, in the assay with OVCAR-3 ovarian and in the assay with DU-145 prostate was above 100 µM throughout.

Turning to `CC(=O)NCC1OC2COC(c3ccccc3)OC2C2N=C(c3ccccc3)OC12` (configuration not stated), the TGI with T-47D breast is 57.7 µM; in the assay on NCI-H460 lung it was above 100 µM; in the assay with SNB-75 CNS it was above 100 µM; in the assay with HCT-15 colon, above 100 µM; with TK-10 renal, above 100 µM; in the assay on MDA-N, above 100 µM. Besides, the TGI in the assay on SF-295 CNS, in the assay on OVCAR-3 ovarian, in the assay on M14 melanoma and in the assay on DU-145 prostate was above 100 µM each time.

With `COc1ccc(C(=O)/C=C/c2ccc(OCCCOc3ccc(/C=C/C(=O)c4ccc(OC)c(OC)c4)cc3)cc2)cc1OC`, the TGI with T-47D breast, in the assay on NCI-H460 lung, with SNB-75 CNS, in the assay with HCT-15 colon, with TK-10 renal and in the assay on IGROV1 ovarian was above 100 µM in each case. Also, the TGI in the assay on MDA-N, in the assay with SF-295 CNS, in the assay with M14 melanoma and in the assay on DU-145 prostate was above 100 µM throughout.

As to `Cc1ccc(C(=O)NN=C(/N=N/c2cccc(C)c2)c2ccc(N(C)C)cc2)cc1`, the TGI in the assay with T-47D breast, in the assay on NCI-H460 lung, in the assay with HCT-15 colon, in the assay on TK-10 renal, with IGROV1 ovarian and in the assay with MDA-N was above 100 µM throughout. The TGI in the assay on SF-295 CNS, in the assay on OVCAR-3 ovarian, in the assay with M14 melanoma and in the assay on DU-145 prostate was above 100 µM throughout.

As to `OCC1c2ccccc2-n2nc(-c3ccccc3)c(O)c21` (configuration not stated), the TGI with T-47D breast is above 100 µM; in the assay on NCI-H460 lung it was 77.2 µM; in the assay with SNB-75 CNS it was above 100 µM; in the assay with HCT-15 colon, 29.2 µM; in the assay with TK-10 renal, 34.1 µM; in the assay on IGROV1 ovarian, above 100 µM. Also, the TGI with MDA-N was above 100 µM; in the assay with SF-295 CNS, above 100 µM; in the assay with OVCAR-3 ovarian, 79.2 µM; with DU-145 prostate it was above 100 µM.

As to `CCOC(=O)c1c(SCCN2CCCCC2)n(-c2ccccc2)c(=S)n(-c2ccccc2)c1=O`, the TGI in the assay with T-47D breast is 8.27 µM; in the assay on NCI-H460 lung it was above 100 µM; in the assay with SNB-75 CNS, 37.1 µM; with HCT-15 colon it was 9.82 µM; in the assay with TK-10 renal, 31.9 µM; in the assay on MDA-N it was 36.9 µM. Further, the TGI in the assay on SF-295 CNS is above 100 µM; in the assay on OVCAR-3 ovarian, 24.7 µM; in the assay with M14 melanoma it was 81.6 µM; with DU-145 prostate, above 55.1 µM.

With `CN1C(=O)C(CCO)(C(C)(C)C)c2ccccc21` (configuration not stated), the TGI in the assay with T-47D breast, in the assay with NCI-H460 lung, with SNB-75 CNS, with HCT-15 colon, in the assay on MDA-N and with SF-295 CNS was above 100 µM throughout. For the same compound, the TGI in the assay with OVCAR-3 ovarian, in the assay with M14 melanoma and in the assay on DU-145 prostate was above 100 µM in each case.

`COc1ccc(/C=N/N=C(\N)NO)c(OC)c1OC`: the TGI was 90.2 µM with T-47D breast; above 100 µM in the assay with NCI-H460 lung; above 100 µM in the assay on HCT-15 colon; above 100 µM in the assay on TK-10 renal; above 100 µM in the assay on IGROV1 ovarian; above 100 µM in the assay with MDA-N. The TGI is above 100 µM in the assay on SF-295 CNS, 67.3 µM in the assay on OVCAR-3 ovarian, above 100 µM in the assay with M14 melanoma and above 100 µM in the assay on DU-145 prostate.
